“Also recorded” adds a separate entry of the source. Read-outs that look alike come from different tables or passages of the source. Positions of bridges follow the written chain, without caps; N, C: chain ends. Residues, ends and D or L forms follow the SMILES beside them.
Assays:
[1] = solubility in physiological media; type: physicochemical
[2] = biological target: binding of Factor VII to tissue factor (Homo sapiens, UniProt P13726); conditions: reported in PCT/GB94/01315; cited from earlier work
Sequence of binding of Factor VII to tissue factor (P13726 33-295): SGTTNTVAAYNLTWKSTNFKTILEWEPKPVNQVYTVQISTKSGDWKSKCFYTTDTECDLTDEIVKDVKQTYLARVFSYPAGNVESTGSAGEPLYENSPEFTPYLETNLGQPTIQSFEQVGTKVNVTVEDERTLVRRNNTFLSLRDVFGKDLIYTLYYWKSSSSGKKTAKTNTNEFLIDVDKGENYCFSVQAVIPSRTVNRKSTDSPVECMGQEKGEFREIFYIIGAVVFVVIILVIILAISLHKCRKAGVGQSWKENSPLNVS

[3] = biological target: T1, factor VIIa/tissue factor (Homo sapiens, UniProt P13726); experiment: two-stage chromogenic assay of factor VIIa/tissue factor-catalysed factor X activation; type: biochemical
T1 construct: purchased American Diagnostica, Inc. (TF); Novo Nordisk A/S (FVIIa)
T1 sequence (P13726 33-295): as above
Experimental: This was determined using a two-stage chromogenic biochemical in vitro assay, essentially as described (A. Kumar et al., 1991, J. Biol. Chem., 266, 915). In short: peptides were pre-incubated with lipidated TF (5 pM; from American Diagnostica, Inc., Greenwich, Conn., USA) and calcium (5 mM) for 10 minutes prior to addition of FVIIa (5 pM; from Novo Nordisk A/S, Gentofte, Denmark) and FX (20 nM; from Enzyme Research Laboratory, South Bend, Ind., USA). Reactions were terminated by addition of EDTA (50 mM) and formation of FXa was monitored using the chromogenic FXa substrate S2765 (0.4 mM; from Chromogenix, Mondal, Sweden) and measuring the absorbance increase at 405 nm in a microtitre plate reader. The concentration for half-maximal inhibition (IC50) was determined from dose-inhibition curves.

[4] = system: tissue factor-dependent plasma coagulation; experiment: one-stage in vitro tissue factor-dependent plasma coagulation assay; type: biochemical, human; conditions: end-capped peptide tested up to 1.5 mM
Experimental: A one-stage in vitro coagulation assay was used as follows: peptides dissolved in 3-[N-morpholino]propane-sulphonic acid buffer (100 mM, pH 7.4) and NaCl (100 mM) were premixed with diluted (1:50 in saline) lipidated TF (Thromborel S®, Behringwerke AG, Marburg, Germany) and CaCl2 (5 mM final concentration) and the solutions were kept at 37° C. for 2 minutes. The coagulation reaction was initiated by addition of a thawed aliquot of frozen platelet-free human plasma pool (37° C.). The clotting-time for four replicate incubations were simultaneously determined automatically in an electromagnetic coagulometer (Thrombotrack 4, Nycomed Pharma AS, Oslo, Norway). The mean value for the clotting times determined from the replicate samples were converted to arbitrary TF units by a log-log calibration curve generated with Thromborel.

[5] = system: TF-dependent arterial thrombogenesis; experiment: human ex vivo model of TF-dependent arterial thrombogenesis; conditions: around 1 mM final peptide/plasma concentration
Experimental: Apart from the ability of the peptide disulphide-cyclo-[H-Cys-Glu-Gln-Tyr-Cys-OH] to inhibit the complex formation between FVIIa and TF in various biochemical assays, we have also found this peptide to be efficacious in a clinically relevant ex vivo model of TF/FVII-dependent arterial human thrombogenesis.
The efficacy of peptides was tested in a human ex vivo model of TF-dependent arterial thrombogenesis, essentially as described (K. S. Sakariassen et al., 1990, Arteriosclerosis, 10, 276; U. .O slashed.rvim et al., 1995, Arterioscl. Thromb. Vasc. Biol., in press). Human non-anticoagulated blood was drawn directly from an antecubital vein and mixed with peptide solution in a heparin-coated mixing device situated proximally to a perfusion chamber which contained a TF-coated coverslip (Thromborel S®). Blood flow was kept at 10 mL/min for 4 minutes, producing a shear rate of 650 s^-1, typical for small arteries.

[6] = mean±standard deviation, TF 5 pM, FVIIa 5 pM, FX 20 nM, read-out: IC50 (concentration for half-maximal inhibition of FXa formation)
[7] = summary values in the description, read-out: IC50 in the two-stage chromogenic assay of A. Kumar et al.

highest testable concentration due to solubility ([1]; coagulation assay buffer)	IC50 [3, 6]	fold lower potency versus disulphide-cyclo-[H-Cys-Glu-Gln-Tyr-Cys-OH] ([3]; same assay)	IC50 [3, 7]	Compound	solubility properties in physiological media [1]	inhibition of binding of Factor VII to tissue factor [2]	effect on clotting time [4]	effect on thrombus formation [5]
ca. 1.5 mM	265 ± 174 µM	26 fold	~200 µM	CC(=O)N[C@H]1CSSC[C@@H](C(N)=O)NC(=O)[C@H](Cc2ccc(O)cc2)NC(=O)[C@H](CCC(N)=O)NC(=O)[C@H](CCC(=O)O)NC1=O [disulphide-cyclo-[Ac-Cys-Glu-Gln-Tyr-Cys-NH2 ]] (Ac-CEQYC-NH2; disulfide 1-5)	poor solubility properties	negligible	without any effect	
	10.1 ± 5 µM		10 µM	NC(=O)CC[C@@H]1NC(=O)[C@H](CCC(=O)O)NC(=O)[C@@H](N)CSSC[C@@H](C(=O)O)NC(=O)[C@H](Cc2ccc(O)cc2)NC1=O [disulphide-cyclo-[H-Cys-Glu-Gln-Tyr-Cys-OH]] (H-CEQYC-OH; disulfide 1-5)	superior solubility properties; also recorded: freely soluble			
				H-YADKIEDTKL-OH [H-Tyr-Ala-Asp-Lys-Ile-Glu-Asp-Thr-Lys-Leu-OH]				no effect

Source: US5962408A, “Disulphide-cyclo-[H-Cys-Glu-Gln-Tyr-Cys-OH], and its use in blood-clotting disorders” (Nycomed Imaging AS, priority 1994, dated 1999)
